Experimental data published in BindingDB's records for patent US12128018 (Kdac Therapeutics, 2024).

Key:
Assay in all cases: Inhibition of Histone Deacetylase Enzymatic Activity
Histone deacetylase 9 = Histone deacetylase 9 (Homo sapiens, UniProt Q9UKV0)
Procedure: (§1) Its final concentration in the assay for HDACs 1,2,3,6 is 2 μM.Substrate B was prepared as 2 mM in 100% DMSO. Its final concentration in the assay for HDACs 4,5,7,8,9 is 2 μM.LBH was used as quench inhibitor to stop the reaction at the end point.

Histone deacetylase 4 = Histone deacetylase 4 (Homo sapiens, UniProt P56524)
Procedure: as §1

Histone deacetylase 8 = molecular target: T1, Histone deacetylase 8 (Homo sapiens, UniProt Q9BY41)
T1 sequence (Q9BY41 whole entry): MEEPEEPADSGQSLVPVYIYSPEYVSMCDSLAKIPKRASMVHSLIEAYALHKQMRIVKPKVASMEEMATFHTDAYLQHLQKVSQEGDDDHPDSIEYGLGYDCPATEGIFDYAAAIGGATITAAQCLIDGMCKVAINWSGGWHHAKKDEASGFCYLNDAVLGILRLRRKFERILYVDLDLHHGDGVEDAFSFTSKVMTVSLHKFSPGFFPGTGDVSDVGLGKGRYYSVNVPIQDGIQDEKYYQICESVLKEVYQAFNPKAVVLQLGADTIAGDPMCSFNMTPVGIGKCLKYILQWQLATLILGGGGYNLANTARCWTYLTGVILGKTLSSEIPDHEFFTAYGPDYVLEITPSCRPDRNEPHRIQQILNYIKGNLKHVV
Procedure: as §1

Histone deacetylase 5 = Histone deacetylase 5 (Homo sapiens, UniProt Q9UQL6)
Procedure: as §1

Histone deacetylase 6 = molecular target: T2, Histone deacetylase 6 (Homo sapiens, UniProt Q9UBN7)
T2 sequence (Q9UBN7 whole entry): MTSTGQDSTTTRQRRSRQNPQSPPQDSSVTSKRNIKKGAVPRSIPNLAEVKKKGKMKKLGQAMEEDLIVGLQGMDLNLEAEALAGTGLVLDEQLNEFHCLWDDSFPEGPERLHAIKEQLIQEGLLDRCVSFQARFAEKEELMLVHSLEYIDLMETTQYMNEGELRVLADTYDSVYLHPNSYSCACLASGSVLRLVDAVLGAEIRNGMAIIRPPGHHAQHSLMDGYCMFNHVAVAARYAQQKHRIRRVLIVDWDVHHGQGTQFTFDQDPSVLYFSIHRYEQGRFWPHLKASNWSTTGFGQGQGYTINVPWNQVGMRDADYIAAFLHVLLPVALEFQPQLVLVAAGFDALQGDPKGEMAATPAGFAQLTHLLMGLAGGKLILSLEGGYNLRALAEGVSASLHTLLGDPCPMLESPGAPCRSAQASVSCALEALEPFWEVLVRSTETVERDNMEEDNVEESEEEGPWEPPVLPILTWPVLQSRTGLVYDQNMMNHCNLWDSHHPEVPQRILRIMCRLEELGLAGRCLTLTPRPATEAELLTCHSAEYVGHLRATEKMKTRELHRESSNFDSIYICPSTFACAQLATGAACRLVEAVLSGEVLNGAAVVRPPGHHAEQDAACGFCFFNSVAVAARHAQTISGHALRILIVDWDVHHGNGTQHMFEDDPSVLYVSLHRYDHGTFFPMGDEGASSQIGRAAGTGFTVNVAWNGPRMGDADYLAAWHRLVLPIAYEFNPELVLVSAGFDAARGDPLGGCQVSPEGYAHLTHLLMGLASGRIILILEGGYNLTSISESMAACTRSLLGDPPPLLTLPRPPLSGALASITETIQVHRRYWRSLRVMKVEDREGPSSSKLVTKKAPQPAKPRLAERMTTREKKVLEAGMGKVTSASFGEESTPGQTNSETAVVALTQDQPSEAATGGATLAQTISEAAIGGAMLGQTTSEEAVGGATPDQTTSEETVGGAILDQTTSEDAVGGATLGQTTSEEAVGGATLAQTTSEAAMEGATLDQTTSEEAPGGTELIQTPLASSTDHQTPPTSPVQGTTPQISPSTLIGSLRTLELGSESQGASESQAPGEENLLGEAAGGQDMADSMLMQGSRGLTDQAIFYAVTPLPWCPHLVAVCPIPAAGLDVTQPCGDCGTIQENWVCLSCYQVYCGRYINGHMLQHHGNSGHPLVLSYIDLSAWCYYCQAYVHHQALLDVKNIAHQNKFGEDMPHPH
Procedure: as §1

Histone deacetylase 7 = molecular target: T3, Histone deacetylase 7 (Homo sapiens, UniProt Q8WUI4)
T3 sequence (Q8WUI4 whole entry): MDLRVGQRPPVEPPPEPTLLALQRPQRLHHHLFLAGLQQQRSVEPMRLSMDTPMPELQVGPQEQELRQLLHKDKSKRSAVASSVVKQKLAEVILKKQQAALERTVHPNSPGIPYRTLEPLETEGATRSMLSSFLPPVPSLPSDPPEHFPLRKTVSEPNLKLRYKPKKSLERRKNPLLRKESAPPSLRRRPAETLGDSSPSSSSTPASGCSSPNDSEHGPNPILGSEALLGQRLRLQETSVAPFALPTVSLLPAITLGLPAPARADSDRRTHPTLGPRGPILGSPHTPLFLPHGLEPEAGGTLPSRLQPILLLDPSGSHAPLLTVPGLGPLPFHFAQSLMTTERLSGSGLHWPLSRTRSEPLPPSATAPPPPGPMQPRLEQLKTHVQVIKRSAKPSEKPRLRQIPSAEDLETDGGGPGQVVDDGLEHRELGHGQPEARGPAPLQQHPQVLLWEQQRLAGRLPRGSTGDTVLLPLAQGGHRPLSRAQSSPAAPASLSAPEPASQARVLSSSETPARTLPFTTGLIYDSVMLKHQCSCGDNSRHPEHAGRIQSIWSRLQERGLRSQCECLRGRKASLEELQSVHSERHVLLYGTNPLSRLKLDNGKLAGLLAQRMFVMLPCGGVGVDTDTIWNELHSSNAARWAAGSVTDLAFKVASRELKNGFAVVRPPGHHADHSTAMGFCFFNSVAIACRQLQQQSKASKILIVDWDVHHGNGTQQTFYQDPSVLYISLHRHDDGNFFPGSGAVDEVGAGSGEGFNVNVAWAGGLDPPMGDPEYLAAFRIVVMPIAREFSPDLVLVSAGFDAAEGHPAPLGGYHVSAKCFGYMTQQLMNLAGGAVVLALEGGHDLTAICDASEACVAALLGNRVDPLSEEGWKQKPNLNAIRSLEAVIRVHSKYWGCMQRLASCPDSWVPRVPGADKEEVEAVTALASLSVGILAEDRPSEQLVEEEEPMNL
Procedure: as §1

Measured: IC50

Histone deacetylase 9, sequence (Q9UKV0 whole entry): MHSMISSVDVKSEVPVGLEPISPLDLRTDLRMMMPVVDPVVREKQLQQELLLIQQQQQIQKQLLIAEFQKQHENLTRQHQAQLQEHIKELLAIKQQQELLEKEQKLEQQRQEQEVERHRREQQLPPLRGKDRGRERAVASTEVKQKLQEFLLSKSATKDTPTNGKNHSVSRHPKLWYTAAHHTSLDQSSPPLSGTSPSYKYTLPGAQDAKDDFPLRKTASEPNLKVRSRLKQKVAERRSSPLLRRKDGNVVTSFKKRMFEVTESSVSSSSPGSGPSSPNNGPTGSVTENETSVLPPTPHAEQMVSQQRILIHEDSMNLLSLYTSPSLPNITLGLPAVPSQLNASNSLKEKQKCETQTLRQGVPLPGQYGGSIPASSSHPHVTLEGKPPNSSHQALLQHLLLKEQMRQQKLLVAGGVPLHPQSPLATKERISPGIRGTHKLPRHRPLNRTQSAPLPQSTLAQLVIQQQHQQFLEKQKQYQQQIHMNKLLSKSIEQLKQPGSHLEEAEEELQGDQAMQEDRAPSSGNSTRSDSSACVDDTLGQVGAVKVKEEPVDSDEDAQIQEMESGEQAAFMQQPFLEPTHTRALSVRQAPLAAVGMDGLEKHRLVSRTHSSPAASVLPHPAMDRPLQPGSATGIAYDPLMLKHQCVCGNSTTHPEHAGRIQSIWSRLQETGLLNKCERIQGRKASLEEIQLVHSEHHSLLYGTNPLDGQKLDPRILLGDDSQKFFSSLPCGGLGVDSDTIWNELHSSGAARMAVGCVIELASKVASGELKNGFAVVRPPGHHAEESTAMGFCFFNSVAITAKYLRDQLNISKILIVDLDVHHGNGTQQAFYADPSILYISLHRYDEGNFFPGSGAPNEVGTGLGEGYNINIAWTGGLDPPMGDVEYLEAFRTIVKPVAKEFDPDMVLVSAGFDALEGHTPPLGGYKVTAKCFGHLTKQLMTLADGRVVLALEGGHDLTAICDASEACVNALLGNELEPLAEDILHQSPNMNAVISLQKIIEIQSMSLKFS
Histone deacetylase 4, sequence (P56524 whole entry): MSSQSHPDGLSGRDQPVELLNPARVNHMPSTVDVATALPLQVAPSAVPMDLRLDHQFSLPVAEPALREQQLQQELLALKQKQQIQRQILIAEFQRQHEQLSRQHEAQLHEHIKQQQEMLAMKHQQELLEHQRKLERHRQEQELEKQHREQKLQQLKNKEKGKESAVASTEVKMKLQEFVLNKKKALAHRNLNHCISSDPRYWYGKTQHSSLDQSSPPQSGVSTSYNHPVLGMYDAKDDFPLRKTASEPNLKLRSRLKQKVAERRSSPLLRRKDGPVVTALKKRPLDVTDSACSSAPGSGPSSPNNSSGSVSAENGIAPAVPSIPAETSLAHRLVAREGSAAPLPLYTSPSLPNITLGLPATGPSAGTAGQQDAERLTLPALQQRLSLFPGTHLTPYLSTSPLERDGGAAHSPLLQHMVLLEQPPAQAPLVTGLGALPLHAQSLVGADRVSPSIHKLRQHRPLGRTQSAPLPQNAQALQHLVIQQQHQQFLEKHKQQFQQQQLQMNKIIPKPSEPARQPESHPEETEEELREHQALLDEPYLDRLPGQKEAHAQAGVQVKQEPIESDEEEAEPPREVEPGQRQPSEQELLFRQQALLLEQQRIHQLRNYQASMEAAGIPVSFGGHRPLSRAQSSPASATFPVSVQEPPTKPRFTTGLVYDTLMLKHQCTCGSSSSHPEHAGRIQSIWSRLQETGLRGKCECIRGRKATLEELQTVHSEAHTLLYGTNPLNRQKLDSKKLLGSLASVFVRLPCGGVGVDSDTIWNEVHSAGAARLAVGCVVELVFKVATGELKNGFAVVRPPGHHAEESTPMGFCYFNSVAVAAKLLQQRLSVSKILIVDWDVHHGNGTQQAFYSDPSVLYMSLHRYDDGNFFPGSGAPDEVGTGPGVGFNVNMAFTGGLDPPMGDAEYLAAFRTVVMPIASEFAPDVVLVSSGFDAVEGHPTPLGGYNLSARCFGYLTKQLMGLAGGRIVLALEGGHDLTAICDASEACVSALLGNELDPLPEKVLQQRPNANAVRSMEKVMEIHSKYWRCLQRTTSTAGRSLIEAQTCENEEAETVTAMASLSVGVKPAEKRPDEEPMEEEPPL
Histone deacetylase 5, sequence (Q9UQL6 whole entry): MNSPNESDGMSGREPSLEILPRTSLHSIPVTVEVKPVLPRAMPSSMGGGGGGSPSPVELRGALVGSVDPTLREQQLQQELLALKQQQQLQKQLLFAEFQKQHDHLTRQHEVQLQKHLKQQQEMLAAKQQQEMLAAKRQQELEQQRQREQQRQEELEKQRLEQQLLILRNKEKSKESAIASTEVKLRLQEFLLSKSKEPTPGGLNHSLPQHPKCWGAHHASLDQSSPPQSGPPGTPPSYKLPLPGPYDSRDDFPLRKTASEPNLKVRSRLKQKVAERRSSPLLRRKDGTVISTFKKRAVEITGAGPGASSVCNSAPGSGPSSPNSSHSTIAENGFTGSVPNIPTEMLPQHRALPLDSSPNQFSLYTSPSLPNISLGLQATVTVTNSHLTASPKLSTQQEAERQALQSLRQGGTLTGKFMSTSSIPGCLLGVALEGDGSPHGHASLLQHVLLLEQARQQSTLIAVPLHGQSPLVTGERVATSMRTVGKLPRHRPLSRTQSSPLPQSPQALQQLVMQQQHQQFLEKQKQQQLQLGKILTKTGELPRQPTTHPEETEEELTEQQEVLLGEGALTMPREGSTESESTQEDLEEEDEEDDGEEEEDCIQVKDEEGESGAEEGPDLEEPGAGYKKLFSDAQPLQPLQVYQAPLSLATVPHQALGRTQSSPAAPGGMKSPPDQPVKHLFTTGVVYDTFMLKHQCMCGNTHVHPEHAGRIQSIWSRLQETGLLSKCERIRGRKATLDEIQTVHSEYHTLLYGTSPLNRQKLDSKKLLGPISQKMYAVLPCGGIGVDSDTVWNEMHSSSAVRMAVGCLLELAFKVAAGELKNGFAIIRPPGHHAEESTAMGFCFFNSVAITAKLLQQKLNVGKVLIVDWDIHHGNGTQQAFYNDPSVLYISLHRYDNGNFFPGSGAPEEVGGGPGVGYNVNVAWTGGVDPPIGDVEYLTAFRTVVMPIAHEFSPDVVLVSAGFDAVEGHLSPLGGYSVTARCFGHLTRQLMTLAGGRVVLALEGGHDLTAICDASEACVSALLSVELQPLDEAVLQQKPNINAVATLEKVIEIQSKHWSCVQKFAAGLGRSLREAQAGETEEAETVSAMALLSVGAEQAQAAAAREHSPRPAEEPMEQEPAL

CC(=O)Nc1ccc(C(=O)Nc2ccc(F)cc2N)cc1 [US12128018, Compound I-1]
> 30 µM: all assays above
